PubChem BioAssay (NCI)
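At the GI50, growth is halved. TGI marks complete inhibition of growth.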

Key:
Assay in all cases: NCI tumour cell line growth inhibition, 384-well format
[1] = system: NCI/ADR-RES ovarian
[2] = system: K-562 leukemia
[3] = system: PC-3 prostate
[4] = system: SNB-75 CNS
[5] = system: NCI-H460 NSCLC
[6] = system: SW-620 colon
[7] = system: SF-539 CNS
[8] = system: UACC-62 melanoma
[9] = system: MDA-MB-468 breast
[10] = system: NCI-H23 lung
[11] = system: OVCAR-4 ovarian
[12] = system: SF-268 CNS
[13] = system: SK-MEL-28 melanoma
[14] = system: RXF 393 renal
[15] = system: A549 NSCLC
[16] = system: SNB-19 CNS
[17] = system: U251 glioblastoma
[18] = system: BT-549 breast
[19] = system: HS 578T breast
[20] = system: HCT-116 colon
[21] = system: A498 renal
[22] = system: OVCAR-8 ovarian
[23] = system: MDA-MB-231 breast
[24] = system: NCI-H522 lung
[25] = system: 786-0 renal
[26] = system: OVCAR-5 ovarian
[27] = system: SK-MEL-5 melanoma
[28] = system: MOLT-4 leukemia
[29] = system: SF-295 CNS
[30] = system: COLO 205 colon
[31] = system: HOP-62 NSCLC
[32] = system: MDA-MB-435 melanoma
[33] = system: HT29 colon
[34] = system: IGROV1 ovarian
[35] = system: MALME-3M melanoma
[36] = system: CAKI-1 renal
[37] = system: ACHN renal
[38] = system: SN12C renal
[39] = system: NCI-H226 lung
[40] = system: NCI-H322M lung
[41] = system: T-47D breast
[42] = system: EKVX NSCLC
[43] = system: HL-60(TB) leukemia
[44] = system: MCF7 breast
[45] = system: RPMI-8226 leukemia
[46] = system: LOX IMVI melanoma
[47] = system: OVCAR-3 ovarian
[48] = system: DU-145 prostate
[49] = system: HCT-15 colon
[50] = system: M14 melanoma
[51] = system: UACC-257 melanoma
[52] = system: KM12 colon
[53] = system: TK-10 renal
[54] = system: HOP-92 NSCLC
[55] = system: UO-31 renal
[56] = system: SK-OV-3 ovarian
[57] = system: CCRF-CEM leukemia
[58] = system: HCC-2998 colon

Which results are given for CN1CCN(CCOc2cc(OC3CCOCC3)c3c(Nc4c(Cl)ccc5c4OCO5)ncnc3c2)CC1?
GI50 [1]: 10.6 µM; TGI [1]: 23.8 µM; GI50 [2]: 0.132 µM; TGI [2]: 0.306 µM; GI50 [3]: 14.1 µM; TGI [3]: 35 µM; GI50 [4]: 0.233 µM; TGI [4]: 0.835 µM; GI50 [5]: 12.7 µM; TGI [5]: 25.5 µM; GI50 [6]: 19.3 µM; TGI [6]: 33.5 µM; GI50 [7]: 10.7 µM; TGI [7]: 22.6 µM; GI50 [8]: 14.1 µM; TGI [8]: 27.1 µM; GI50 [9]: 0.403 µM; TGI [9]: 1.95 µM; GI50 [10]: 5.77 µM; TGI [10]: 20.9 µM; GI50 [11]: 13 µM; TGI [11]: 26.1 µM; GI50 [12]: 0.55 µM; TGI [12]: 3.18 µM; GI50 [13]: 14.7 µM; TGI [13]: 27.9 µM; GI50 [14]: 0.215 µM; TGI [14]: 2.94 µM; GI50 [15]: 1.45 µM; TGI [15]: 17.9 µM; GI50 [16]: 9.59 µM; TGI [16]: 29 µM; GI50 [17]: 6.67 µM; TGI [17]: 19.9 µM; GI50 [18]: 2.77 µM; TGI [18]: 16.2 µM; GI50 [19]: 0.387 µM; TGI [19]: 4.35 µM; GI50 [20]: 10.7 µM; TGI [20]: 22.5 µM; GI50 [21]: 1.95 µM; TGI [21]: 12.6 µM; GI50 [22]: 8.72 µM; TGI [22]: 21.3 µM; GI50 [23]: 2.83 µM; TGI [23]: 17.6 µM; GI50 [24]: 0.179 µM; TGI [24]: 10.7 µM; GI50 [25]: 0.943 µM; TGI [25]: 15.2 µM; GI50 [26]: 0.679 µM; TGI [26]: 12 µM; GI50 [27]: 10.8 µM; TGI [27]: 22.8 µM; GI50 [28]: 8.27 µM; TGI [28]: 21.2 µM; GI50 [29]: 11.4 µM; TGI [29]: 23.5 µM; GI50 [30]: 14.9 µM; TGI [30]: 28.1 µM; GI50 [31]: 6.29 µM; TGI [31]: 19.7 µM; GI50 [32]: 16.2 µM; TGI [32]: 29.8 µM; GI50 [33]: 1.43 µM; TGI [33]: 8.86 µM; GI50 [34]: 0.0603 µM; TGI [34]: 0.295 µM; GI50 [35]: 14.1 µM; TGI [35]: 27.1 µM; GI50 [36]: 0.514 µM; TGI [36]: 13.6 µM; GI50 [37]: 0.317 µM; TGI [37]: 12.6 µM; GI50 [38]: 0.377 µM; TGI [38]: 12.8 µM; GI50 [39]: 12.5 µM; TGI [39]: 26.6 µM; GI50 [40]: 0.387 µM; TGI [40]: 10.3 µM; GI50 [41]: 0.171 µM; TGI [41]: 3.06 µM; GI50 [42]: 0.552 µM; TGI [42]: 11.9 µM; GI50 [43]: 22.3 µM; TGI [43]: 36.8 µM; GI50 [44]: 9.74 µM; TGI [44]: 21.7 µM; GI50 [45]: 14.4 µM; TGI [45]: 27.5 µM; GI50 [46]: 0.448 µM; TGI [46]: 7 µM; GI50 [47]: 1.14 µM; TGI [47]: 16.8 µM; GI50 [48]: 5.09 µM; TGI [48]: 18.7 µM; GI50 [49]: 3.68 µM; TGI [49]: 18.9 µM; GI50 [50]: 15.2 µM; TGI [50]: 28.6 µM; GI50 [51]: 2.53 µM; TGI [51]: 10.5 µM; GI50 [52]: 0.658 µM; TGI [52]: 14 µM; GI50 [53]: 1.67 µM; TGI [53]: 5.54 µM; GI50 [54]: 2.33 µM; TGI [54]: 17.4 µM; GI50 [55]: 0.446 µM; TGI [55]: 15.4 µM; GI50 [56]: 0.317 µM; TGI [56]: 13 µM; GI50 [57]: 14.3 µM; TGI [57]: 27.4 µM; GI50 [58]: 5.25 µM; TGI [58]: 19 µM
